This note sets out measurements from US20220395553A1, “CXCR4 ANTAGONIST PEPTIDES” (COHBAR, INC., priority 2019, published 2022).

Square brackets hold non-standard residues; d marks the D form. Peptide text beside a SMILES is read from it.

One experiment has as its system Jurkat cells. Put plainly: CXCL12 mediated cell migration, Jurkat cells. The class given is cell-based, human. The conditions noted are these: 1.1 μM test article, 100 ng/ml CXCL12, 1 hour. How it is done: The assay was performed following a protocol similar to that described by Peng, et al., Mol Cancer Ther., 14480-90 (2015), incorporated herein by reference. Peptides were initially prepared as 1 mM stock in H2O and tested at a final concentration of 1.1 μM. […] Jurkat cells were resuspended in serum free media (RPMI+GlutaMax; Gibco/Thermo Fisher Scientific; Gaithersburg, Md.) containing 0.5% bovine serum albumin at density of 5×10^6 cells/ml. […] Cells (250,000 cells in 50 μl) supplemented with the appropriate treatments were seeded on to the upper chamber of a 96-well 5 μm HTS Transwell filter insert (Corning/Costar; Tewksbury, Mass.). […] Filter inserts were immediately placed on top of 96-well receiver trays and placed at 37° C. in a humidified atmosphere of 5% CO2/95% air for 1 hour. Following the 1 hour incubation period the filter inserts were carefully removed and the migration of cells across the filter into the bottom chamber (receiver wells) was determined by measuring ATP levels using Cell TiterGlo 2.0, according to manufacturer's instructions (Promega; Madison, Wis.); luminescence was measured using a Cytation 3 plate reader (BioTek; Winooski, Vt.).

Experiment [1] has as its system CXCR4/CXCL12 induced p-MEK. Put plainly: CXCR4/CXCL12 induced p-MEK in Jurkat cells (ELISA). The class given is cell-based, human. The conditions noted are these: 5 nM CXCL12, 5 min. The gist of the method:
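Jurkat cells in RPMI+GlutaMax containing 10% FBS and 1% penicillin/streptomycin, fresh or conditioned, were resuspended at 2×10^6 cells/ml and […] aliquots placed in tubes. After a 5 min stimulation they were pelleted, rinsed with HBSS and lysed with PMSF and protease/phosphatase inhibitors. Phospho-MEK1 (Ser217/221) was quantified by sandwich ELISA with absorbance read at 450 nm.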

The target of experiment [2] is T1, human CXCR4 (Homo sapiens, UniProt P61073). Put plainly: IC50 for inhibition of CXCR4 activation, β-Arrestin recruitment (Example 22). The class given is cell-based. Also on record: host or cells: C2C12 (mouse myoblast) CXCR4 β-Arrestin PathHunter cell line. Put shortly:
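C2C12 cells co-expressing ProLink-tagged human CXCR4 and Enzyme Acceptor-tagged β-arrestin (PathHunter). Peptides tested in 10-point, 3-fold dilutions from 1 μM (1 μM–0.05 nM). Recruitment read by chemiluminescent enzyme-fragment complementation after 90 min incubation.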
(In general: Arrestin recruitment assays detect the binding of arrestin to an activated receptor.)

In experiment [3] the target is T1, human CXCR4. As to the kind of experiment: CXCR4/CXCL12 binding, HTRF format, single concentration (Example 23). Also on record: host or cells: HEK293 (Tag-lite CXCR4 cells, frozen aliquots, transient expression). To be noted: 15 nM CXCR4R fluorescent probe, 3 hours, HEK293 Tag-lite CXCR4 cells. The gist of the method: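 Tag-lite CXCR4 cells were exposed to peptide at 400 nM final with 15 nM (EC80) fluorescent CXCR4 probe for 3 h at room temperature. HTRF was read, and the 665/620 nm ratio ×10,000 measured probe bound to terbium-labelled receptor.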
A general note: Time-resolved FRET reads energy transfer from a long-lived donor to a nearby acceptor.

In experiment [4] the target is T1, human CXCR4. Put plainly: IC50 for CXCR4/CXCL12 ligand binding, HTRF format (Example 24). Also noted: host or cells: HEK293 (Tag-lite CXCR4 cells, frozen aliquots, transient expression). The procedure: Peptides were initially prepared as 1 mM stock in H2O. […] Following the manufacture's protocol, a frozen aliquot of Tag-lite CXCR4 cells was thawed and immediately seeded onto 384-well plates in TLB. […] The plates were covered in aluminum foil and left at room temperature for 3 hours. Following the 3 hour incubation period, the plates were removed from the incubator and fluorescence measured using a Cytation 1 plate reader using a HTRF filter cube ([…]; BioTek; Winooski, Vt.).

T1 sequence (P61073 whole entry, the tested form may be a part): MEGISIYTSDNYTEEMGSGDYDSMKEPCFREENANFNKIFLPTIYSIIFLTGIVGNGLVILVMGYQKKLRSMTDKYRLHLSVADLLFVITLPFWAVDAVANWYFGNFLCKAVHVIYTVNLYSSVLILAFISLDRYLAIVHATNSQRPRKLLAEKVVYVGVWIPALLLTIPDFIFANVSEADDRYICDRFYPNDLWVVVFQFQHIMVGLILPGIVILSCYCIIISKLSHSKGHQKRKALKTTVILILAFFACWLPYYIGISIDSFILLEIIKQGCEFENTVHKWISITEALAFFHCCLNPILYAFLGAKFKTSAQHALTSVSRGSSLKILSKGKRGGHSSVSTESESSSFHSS

For the compound `CC(C)C[C@H](NC(=O)[C@H](CO)NC(=O)[C@H](CO)NC(=O)[C@H](CCCNC(=N)N)NC(=O)[C@@H](NC(=O)[C@H](CO)NC(=O)[C@H](Cc1c[nH]cn1)NC(=O)[C@H](Cc1c[nH]cn1)NC(=O)[C@H](Cc1ccccc1)NC(=O)[C@H](CCCNC(=N)N)NC(=O)[C@H](CCC(=O)O)NC(=O)[C@@H](N)CC(C)C)C(C)C)C(=O)N[C@@H](CCCNC(=N)N)C(=O)N1CCC[C@H]1C(=O)N[C@@H](Cc1ccc(O)cc1)C(=O)N[C@H](C(=O)N[C@@H](CCCCN)C(=O)O)[C@@H](C)O` [compound 54] (H-LERFHHSVRSSLRPYTK-OH; N-terminus and C-terminus assumed), in the experiment with Jurkat cells, the “Percent Inhibition of CXCL12 Mediated Migration (1.1 μM Test Article)” value (“Percent Inhibition … (1.1 μM Test Article)” below) is listed as 54%. Besides, in experiment [1], the “Percent Inhibition of CXCR4/CXCL12 Induced p-MEK (100 nM Test Article)” value turned out to be 46%. Besides, the “Percent Inhibition of CXCR4/CXCL12 Induced p-MEK (1 μM Test Article)” value in experiment [1] was determined as 92%. In addition, the IC50 against human CXCR4 [2] is 3 nM; at human CXCR4 [4], 8 nM. In addition, the “Percent Inhibition of CXCR4/CXCL12 Binding (400 nM peptide)” value at human CXCR4 [3] amounted to 79%.

In the case of `CC(C)C[C@H](NC(=O)[C@H](CO)NC(=O)[C@H](CO)NC(=O)[C@H](CCCNC(=N)N)NC(=O)[C@@H](NC(=O)[C@H](CO)NC(=O)[C@H](Cc1c[nH]cn1)NC(=O)[C@H](Cc1c[nH]cn1)NC(=O)[C@H](Cc1ccc(O)cc1)NC(=O)[C@H](CCCNC(=N)N)NC(=O)[C@H](CCC(=O)O)NC(=O)[C@@H](N)CC(C)C)C(C)C)C(=O)N[C@@H](CCCNC(=N)N)C(=O)N1CCC[C@H]1C(=O)N[C@@H](Cc1ccc(O)cc1)C(=O)N[C@H](C(=O)N[C@@H](CCCCN)C(N)=O)[C@@H](C)O` [compound 56] (H-LERYHHSVRSSLRPYTK-NH2; N-terminus assumed), in the experiment with Jurkat cells, the “Percent Inhibition … (1.1 μM Test Article)” value worked out at 83%. For the same compound, in experiment [1], the “Percent Inhibition of CXCR4/CXCL12 Induced p-MEK (100 nM Test Article)” value came out at 69% and the “Percent Inhibition of CXCR4/CXCL12 Induced p-MEK (1 μM Test Article)” value is given as 98%. Further, the IC50 on human CXCR4 [2] amounted to 11 nM. Further, at human CXCR4 [3], the “Percent Inhibition of CXCR4/CXCL12 Binding (400 nM peptide)” value was 79%. At human CXCR4 [4], the IC50 is 5 nM.

With `CC(C)C[C@H](NC(=O)[C@H](CO)NC(=O)[C@H](CO)NC(=O)[C@H](CCCNC(=N)N)NC(=O)[C@@H](C)NC(=O)[C@H](CO)NC(=O)[C@H](Cc1c[nH]cn1)NC(=O)[C@H](Cc1c[nH]cn1)NC(=O)[C@H](Cc1ccc(O)cc1)NC(=O)[C@H](CCCNC(=N)N)NC(=O)[C@H](CCC(=O)O)NC(=O)[C@@H](N)CC(C)C)C(=O)N[C@@H](CCCNC(=N)N)C(=O)N1CCC[C@H]1C(=O)N[C@@H](Cc1ccc(O)cc1)C(=O)N[C@H](C(=O)N[C@@H](CCCCN)C(N)=O)[C@@H](C)O` [compound 57] (H-LERYHHS[dA]RSSLRPYTK-NH2; N-terminus assumed), in the experiment on Jurkat cells, the “Percent Inhibition … (1.1 μM Test Article)” value was determined as 30%. The “Percent Inhibition of CXCR4/CXCL12 Induced p-MEK (100 nM Test Article)” value in experiment [1] was 10%. Also, the “Percent Inhibition of CXCR4/CXCL12 Induced p-MEK (1 μM Test Article)” value in experiment [1] worked out at 72%. The IC50 at human CXCR4 [2] worked out at 33 nM; on human CXCR4 [4] it was 7 nM. Besides, the “Percent Inhibition of CXCR4/CXCL12 Binding (400 nM peptide)” value at human CXCR4 [3] stood at 77%.

Regarding `CC(C)C[C@H](NC(=O)[C@H](CO)NC(=O)[C@H](CO)NC(=O)[C@H](CCCNC(=N)N)NC(=O)[C@@H](NC(=O)[C@H](CO)NC(=O)[C@H](Cc1c[nH]cn1)NC(=O)[C@H](Cc1c[nH]cn1)NC(=O)[C@H](Cc1ccc(O)cc1)NC(=O)[C@H](CCCNC(=N)N)NC(=O)[C@H](CCC(=O)O)NC(=O)[C@@H](N)CC(C)C)C(C)C)C(=O)N[C@@H](CCCNC(=N)N)C(=O)N1CCC[C@H]1C(=O)N[C@@H](Cc1ccccc1)C(=O)N[C@H](C(=O)N[C@@H](CCCCN)C(=O)O)[C@@H](C)O` [compound 60] (H-LERYHHSVRSSLRPFTK-OH; N-terminus and C-terminus assumed), in the experiment with Jurkat cells, the “Percent Inhibition … (1.1 μM Test Article)” value came to 33%. Moreover, the “Percent Inhibition of CXCR4/CXCL12 Induced p-MEK (100 nM Test Article)” value in experiment [1] worked out at 34%. Besides, the “Percent Inhibition of CXCR4/CXCL12 Induced p-MEK (1 μM Test Article)” value in experiment [1] stood at 82%. The IC50 was 4 nM against human CXCR4 [2] and 17 nM on human CXCR4 [4]. The “Percent Inhibition of CXCR4/CXCL12 Binding (400 nM peptide)” value at human CXCR4 [3] is 60%.

By IC50 is commonly meant the concentration that inhibits the measured activity by half. Read a high IC50 as a need for much substance.
